Measurements taken from ChEMBL document CHEMBL1687787, “Emergence and Distribution of Plasmids Bearing the blaOXA-51-like gene with an upstream ISAba1 in carbapenem-resistant Acinetobacter baumannii isolates in Taiwan” (2010).
Converted amounts (≈) assume the structure as drawn. The source made the active and inactive calls. The rule behind the calls is not given here.

How the values were obtained:
Acinetobacter baumannii [1] = test: Antimicrobial activity against Acinetobacter baumannii clinical isolate harboring chromosomally encoded ISAba1-blaOXA-51-like gene with fxsA upstream sequence by agar dilution method in presence of Tazobactam; type: functional, organism-based
Acinetobacter baumannii [2] = test: Antimicrobial activity against Acinetobacter baumannii clinical isolate harboring plasmid encoded ISAba1-blaOXA-51-like gene with nuc upstream sequence by agar dilution method in presence of Tazobactam; type: functional, organism-based
Acinetobacter baumannii [3] = test: Antimicrobial activity against Acinetobacter baumannii F-type isolate transformed with plasmid harboring ISAba1-blaOXA-82 by agar dilution method
Acinetobacter baumannii [4] = test: Antimicrobial activity against Acinetobacter baumannii ATCC 15151 by agar dilution method; type: functional
Acinetobacter baumannii [5] = test: Antimicrobial activity against Acinetobacter baumannii ATCC 15151 transformed with shuttle vector carrying beta-lactamase OXA-82 by agar dilution method; type: functional
Acinetobacter baumannii [6] = test: Antimicrobial activity against Acinetobacter baumannii F-type isolate by agar dilution method; type: functional
Acinetobacter baumannii [7] = test: Antimicrobial activity against Acinetobacter baumannii ATCC 15151 transformed with plasmid harboring ISAba1-blaOXA-82 by agar dilution method; type: functional

| Compound | Activity (Acinetobacter baumannii [1]) | Activity (Acinetobacter baumannii [2]) | MIC (Acinetobacter baumannii [3]) [µg/mL] | MIC (Acinetobacter baumannii [4]) [µg/mL] | MIC (Acinetobacter baumannii [5]) [µg/mL] | MIC (Acinetobacter baumannii [6]) [µg/mL] | MIC (Acinetobacter baumannii [7]) [µg/mL] |
| --- | --- | --- | --- | --- | --- | --- | --- |
| CCN1CCN(C(=O)N[C@@H](C(=O)N[C@@H]2C(=O)N3[C@@H]2SC(C)(C)[C@@H]3C(=O)O)c2ccccc2)C(=O)C1=O | inactive | inactive | – | – | – | – | – |
| C[C@@H](O)[C@H]1C(=O)N2C(C(=O)O)=C(SCCNC=N)C[C@H]12 [IMIPENEM ANHYDROUS] | – | – | 64 (≈ 214 µM) | 0.5 (≈ 1.67 µM) | 2 (≈ 6.68 µM) | 4 (≈ 13.4 µM) | 32 (≈ 107 µM) |
